Columns and labels:
Experiment in all cases: MIC by broth microdilution
E. coli = assay type: cell-based, Escherichia coli
Description: (§1) MICs of amikacin and gentamicin were determined using the broth microdilution method in cation-adjusted Mueller-Hinton broth, as recommended by the Clinical Laboratory Standard Institute (CLSI) guidelines (8). Amikacin and gentamicin sulfate (Fluorochem, Dertbyshire, UK) were tested over a range of dilutions from 0.25 to 256 μg/ml. A final inoculum of 5.10^5 CFU/ml of each strain was distributed in the 96 wells tray (Sarstedt, Ntimbrecht, Germany). All experiments were repeated in triplicate and E. coli ATCC 25922 was used as quality control. According to the CLSI breakpoints (9), Enterobacteriaceae isolates with gentamicin MICs≤4 and amikacin MICs≤16 mg/L were categorized as susceptible, while those with gentamicin MICs≥16 and amikacin MICs≥64 mg/L were categorized as resistant.
(§2) MICs of amikacin and gentamicin were determined as described above in Example 1.

K. pneumoniae = assay type: cell-based, Klebsiella pneumoniae
Description: as §1, §2

P. stuartii = assay type: cell-based, Providencia stuartii
Description: as §1, §2

P. rettgeri = assay type: cell-based, Providencia rettgeri; conditions: AAC(2′)
Description: as §1, §2

A. baumannii = assay type: cell-based, Acinetobacter baumannii
Description: as §1, §2

E. cloacae = assay type: cell-based, Enterobacter cloacae
Description: as §1, §2

S. marcescens = assay type: cell-based, Serratia marcescens; conditions: AAC(3)-I
Description: as §1, §2

[1] = isolate 92/31, E. coli, AAC(3)-IV
[2] = isolate 1488, E. coli, AAC(6′)-II
[3] = isolate 4000, E. coli, APH(3′)-I + AAC(3)-V
[4] = isolate FR136, E. coli ATCC 25922, AG susceptible
[5] = isolate R1436, E. coli, AG susceptible
[6] = isolate R1438, E. coli, AG susceptible
[7] = isolate R2278, E. coli ATCC 35218, AG susceptible
[8] = isolate R4100, E. coli TOP10, npmA
[9] = isolate RP4, E. coli, APH(3′)-Ib
[10] = isolate pFCT1163, E. coli, AAC(6′)-Ia
[11] = isolate pFCT4392, E. coli, AAC(3)-Ia
[12] = isolate 1800, K. pneumoniae, AAC(6′)-I + AAC(3)-I
[13] = isolate 13000, K. pneumoniae, APH(3′)-I + AAC(3)-V
[14] = isolate 22233, K. pneumoniae, AAC(3)-V
[15] = isolate N34, K. pneumoniae, rmtC
[16] = isolate R108, K. pneumoniae, armA
[17] = isolate R347, K. pneumoniae, AG susceptible
[18] = isolate R500, K. pneumoniae, armA
[19] = isolate R502, K. pneumoniae, rmtF
[20] = isolate R2160, K. pneumoniae, rmtG
[21] = isolate R2257, K. pneumoniae, armA
[22] = isolate S155, K. pneumoniae, AG susceptible
[23] = isolate BM2667, P. stuartii, APH(3′)-VI + AAC(2′)
[24] = isolate R265, P. stuartii, rmtC
[25] = isolate 1110, E. cloacae, ANT(2″)
[26] = isolate HM, E. cloacae, AG susceptible
[27] = isolate R713, E. cloacae, AG susceptible
[28] = isolate R1433, E. cloacae, AG susceptible
[29] = isolate R2258, E. cloacae, armA

Gentamicin
8 µg/mL: MIC (E. coli; isolate 1054 (first entry), E. coli, AAC(6′)-I) | MIC (E. coli; isolate 1054 (second entry), E. coli, AAC(6′)-I) | MIC (E. coli; strain 1054a, E. coli, AAC(6′)-I) | MIC (E. coli; strain 1054b, E. coli, AAC(6′)-I) | MIC (P. stuartii; [23])
4 µg/mL: MIC (E. coli; [10]) | MIC (E. coli; strain pFCT1163, E. coli, AAC(6′)-Ia) | MIC (P. rettgeri; isolate 531, P. rettgeri) | MIC (P. rettgeri; strain 531, P. rettgeri) | MIC (A. baumannii; strain 4996, A. baumannii, AAC(6′)-I)
>256 µg/mL: MIC (K. pneumoniae; [15]) | MIC (K. pneumoniae; [16]) | MIC (K. pneumoniae; [18]) | MIC (K. pneumoniae; [19]) | MIC (K. pneumoniae; [20]) | MIC (K. pneumoniae; [21]) | MIC (K. pneumoniae; strain N34, K. pneumoniae, rmtC) | MIC (K. pneumoniae; strain R108, K. pneumoniae, armA) | MIC (K. pneumoniae; strain R500, K. pneumoniae, armA) | MIC (K. pneumoniae; strain R502, K. pneumoniae, rmtF) | MIC (K. pneumoniae; strain R2160, K. pneumoniae, rmtG) | MIC (K. pneumoniae; strain R2257, K. pneumoniae, armA) | MIC (P. stuartii; isolate R38, P. stuartii, rmtC) | MIC (P. stuartii; [24]) | MIC (P. stuartii; strain R38, P. stuartii, rmtC) | MIC (P. stuartii; strain R265, P. stuartii, rmtC) | MIC (A. baumannii; strain R264, A. baumannii, armA) | MIC (E. cloacae; [29]) | MIC (E. cloacae; strain R2258, E. cloacae, armA)
258 µg/mL: MIC (E. coli; strain R4100, E. coli, npmA)
0.5 µg/mL: MIC (E. coli; [4]) | MIC (K. pneumoniae; [17]) | MIC (K. pneumoniae; [22]) | MIC (K. pneumoniae; strain R347, K. pneumoniae, susceptible) | MIC (K. pneumoniae; strain S155, K. pneumoniae, susceptible) | MIC (A. baumannii; strain 8541, A. baumannii, APH(3′)-VI) | MIC (E. cloacae; [27]) | MIC (E. cloacae; strain R713, E. cloacae, susceptible)
2 µg/mL: MIC (E. coli; strain RP4, E. coli, APH(3′)-Ib) | MIC (A. baumannii; strain BM2580, A. baumannii, APH(3′)-VI) | MIC (E. cloacae; [26]) | MIC (E. cloacae; [28]) | MIC (E. cloacae; strain HM, E. cloacae, susceptible) | MIC (E. cloacae; strain R1433, E. cloacae, susceptible)
32 µg/mL: MIC (E. coli; isolate 97, E. coli, AAC(3)-IV) | MIC (E. coli; [11]) | MIC (E. coli; strain 97, E. coli, AAC(3)-IV) | MIC (E. coli; strain pFCT4392, E. coli, AAC(3)-Ia) | MIC (E. cloacae; [25]) | MIC (E. cloacae; strain 1110, E. cloacae, ANT(2″))
1 µg/mL: MIC (E. coli; [5]) | MIC (E. coli; [6]) | MIC (E. coli; [7]) | MIC (E. coli; [9]) | MIC (E. coli; strain R1436, E. coli, susceptible) | MIC (E. coli; strain R1438, E. coli, susceptible) | MIC (E. coli; strain R2278, E. coli ATCC 35218, susceptible) | MIC (E. coli; strain R2298, E. coli ATCC 25922, susceptible) | MIC (A. baumannii; strain R1395, A. baumannii, susceptible)
16 µg/mL: MIC (E. coli; [1]) | MIC (E. coli; [2]) | MIC (E. coli; strain 92/31, E. coli, AAC(3)-IV) | MIC (E. coli; strain 1488, E. coli, AAC(6′)-II) | MIC (K. pneumoniae; [12]) | MIC (K. pneumoniae; strain 1800, K. pneumoniae, AAC(6′)-I + AAC(3)-I) | MIC (P. stuartii; strain BM2667, P. stuartii, APH(3′)-VI + AAC(2′))
128 µg/mL: MIC (K. pneumoniae; [13]) | MIC (K. pneumoniae; [14]) | MIC (K. pneumoniae; strain 13000, K. pneumoniae, APH(3′)-I + AAC(3)-V) | MIC (K. pneumoniae; strain 22233, K. pneumoniae, AAC(3)-V)
64 µg/mL: MIC (E. coli; [3]) | MIC (E. coli; [8]) | MIC (E. coli; strain 4000, E. coli, APH(3′)-I + AAC(3)-V) | MIC (S. marcescens; isolate 4290, S. marcescens) | MIC (S. marcescens; strain 4290, S. marcescens)
S (gentamicin MICs≤4): Gentamicin Phenotype (E. coli; [4]) | Gentamicin Phenotype (E. coli; [5]) | Gentamicin Phenotype (E. coli; [6]) | Gentamicin Phenotype (E. coli; [7]) | Gentamicin Phenotype (E. coli; [9]) | Gentamicin Phenotype (E. coli; [10]) | Gentamicin Phenotype (K. pneumoniae; [17]) | Gentamicin Phenotype (K. pneumoniae; [22]) | Gentamicin Phenotype (P. stuartii; [23]) | Gentamicin Phenotype (P. rettgeri; isolate 531, P. rettgeri) | Gentamicin Phenotype (E. cloacae; [26]) | Gentamicin Phenotype (E. cloacae; [27]) | Gentamicin Phenotype (E. cloacae; [28])
R (gentamicin MICs≥16): Gentamicin Phenotype (E. coli; isolate 62Carb, E. coli, rmtB) | Gentamicin Phenotype (E. coli; [1]) | Gentamicin Phenotype (E. coli; isolate 97, E. coli, AAC(3)-IV) | Gentamicin Phenotype (E. coli; isolate 390, E. coli, AAC(3)-IV) | Gentamicin Phenotype (E. coli; [2]) | Gentamicin Phenotype (E. coli; [3]) | Gentamicin Phenotype (E. coli; isolate 22089, E. coli, AAC(3)-I + AAC(3)-V) | Gentamicin Phenotype (E. coli; isolate 122971, E. coli, ANT(2″)) | Gentamicin Phenotype (E. coli; isolate E28, E. coli, rmtB) | Gentamicin Phenotype (E. coli; isolate R107, E. coli, rmtB) | Gentamicin Phenotype (E. coli; isolate R262, E. coli, rmtC) | Gentamicin Phenotype (E. coli; isolate R451, E. coli, rmtC) | Gentamicin Phenotype (E. coli; isolate R989, E. coli, armA) | Gentamicin Phenotype (E. coli; isolate R990, E. coli, rmtB) | Gentamicin Phenotype (E. coli; isolate R1012, E. coli, armA) | Gentamicin Phenotype (E. coli; [8]) | Gentamicin Phenotype (E. coli; [11]) | Gentamicin Phenotype (E. coli; isolate pWP701, E. coli, AAC(3)-IV) | Gentamicin Phenotype (K. pneumoniae; [12]) | Gentamicin Phenotype (K. pneumoniae; [13]) | Gentamicin Phenotype (K. pneumoniae; [14]) | Gentamicin Phenotype (K. pneumoniae; [15]) | Gentamicin Phenotype (K. pneumoniae; [16]) | Gentamicin Phenotype (K. pneumoniae; [18]) | Gentamicin Phenotype (K. pneumoniae; [19]) | Gentamicin Phenotype (K. pneumoniae; [20]) | Gentamicin Phenotype (K. pneumoniae; [21]) | Gentamicin Phenotype (P. stuartii; isolate R38, P. stuartii, rmtC) | Gentamicin Phenotype (P. stuartii; [24]) | Gentamicin Phenotype (E. cloacae; [25]) | Gentamicin Phenotype (E. cloacae; [29]) | Gentamicin Phenotype (S. marcescens; isolate 4290, S. marcescens)

Source: patent US20190249218A1, “Method, Medium and Kit for Detecting Multiple Aminoglycoside Resistance Including 16S rRNA Methylase Mediated Resistance in Gram-Negative Bacteria” (priority 2016, published 2019)
